Test results published in PMC8079033, “Design, synthesis, anticancer evaluation, and molecular modelling studies of novel tolmetin derivatives as potential VEGFR-2 inhibitors and apoptosis inducers” (Journal of Enzyme Inhibition and Medicinal Chemistry, 2021).

Assays:
A498 = test: NCI 60-cell line one-dose antiproliferative screen (SRB); format: cell-based; details: Homo sapiens, read-out: growth inhibition % (GI%)
Description: (§1) Anticancer activity screening of the newly synthesised compounds was measured in vitro utilising 60 different human tumour cell lines provided by US National Cancer Institute according to previously reported standard procedure[41–43] as follows: Cells are inoculated into 96-well microtiter plates in 100 ml. After cell inoculation, the microtiter plates are incubated at 37 °C, 5% CO2, 95% air, and 100% relative humidity for 24 h prior to addition of experimental compounds. After 24 h, two plates of each cell line are fixed in situ with TCA, to represent a measurement of the cell population for each cell line at the time of compound addition (Tz). Experimental compounds are solubilised in dimethyl sulfoxide at 400-fold the desired final maximum test concentration and stored frozen prior to use. At the time of compound addition, an aliquot of frozen concentrate is thawed and diluted to twice the desired final maximum test concentration with a complete medium containing […] gentamicin. Aliquots of […] of the compounds dilutions are added to the appropriate microtiter wells already containing 100 ml of medium, resulting in the required final compound concentration. Following compound addition, the plates are incubated for an additional 48 h at 37 °C, 5% CO2, 95% air, and 100% relative humidity. For adherent cells, the assay is terminated by the addition of cold trichloroacetic acid (TCA). Cells are fixed in situ by the gentle addition of 50 ml of cold 50% (w/v) TCA (final concentration, 10% TCA) and incubated for […] at 4 °C. The supernatant is discarded, and the plates are washed five times with tap water and air-dried. Sulforhodamine B (SRB) solution (100 ml) at 0.4% (w/v) in 1% acetic acid is added to each well, and plates are incubated for 10 min at room temperature. After staining, the unbound dye is removed by washing five times with 1% acetic acid and the plates are air-dried. The bound stain is subsequently solubilised with a 10 mM trizma base, and the absorbance is read on an automated plate reader at a wavelength of 515 nm. For suspension cells, the methodology is the same except that the assay is terminated by fixing settled cells at the bottom of the wells by gently adding 50 ml of 80% TCA (final concentration, 16% TCA). Using the absorbance measurements [time zero, (Tz), control growth, (C), and test growth in the presence of compound (Ti)], the percentage growth is calculated for each compound. The One-dose data are reported as a mean graph of the percent growth of treated cells. The reported number is growth relative to the no-compound control, and relative to the time zero number of cells. This allows the detection of both growth inhibition and lethality.
(§2) Fifteen newly synthesised compounds were tested for their in vitro antiproliferative activity by the National Cancer Institute (NCI), Maryland, USA[50], under the Developmental Therapeutic Program (DTP)[41]^,[43]^,[51]^,[52]. The tested compounds were evaluated at a concentration of 10 µM on a panel of 60 tumour cell lines representing leukaemia and non-small cell lung, colon, CNS, melanoma, ovarian, renal, prostate, and breast cancers. The antiproliferative activity was presented by the NCI as percent growth of the treated cells and is presented in Table 1 as growth inhibition percentage (GI%) achieved by the tested compounds.

A549/ATCC = test: as above; format: cell-based; details: Homo sapiens, read-out: growth inhibition % (GI%)
Description: as §1, §2

ACHN = test: as above; format: cell-based; details: Homo sapiens, read-out: growth inhibition % (GI%)
Description: as §1, §2

BT-5 = test: as above; format: cell-based; details: Homo sapiens, read-out: growth inhibition % (GI%)
Description: as §1, §2

CAKI-1 = test: as above; format: cell-based; details: Homo sapiens, read-out: growth inhibition % (GI%)
Description: as §1, §2

EKVX = test: as above; format: cell-based; details: Homo sapiens, read-out: growth inhibition % (GI%)
Description: as §1, §2

HCT-15 = test: as above; format: cell-based; details: Homo sapiens, read-out: growth inhibition % (GI%)
Description: as §1, §2

HOP-62 = test: as above; format: cell-based; details: Homo sapiens, read-out: growth inhibition % (GI%)
Description: as §1, §2

HS 578 T = test: as above; format: cell-based; details: Homo sapiens, read-out: growth inhibition % (GI%)
Description: as §1, §2

IGROV1 = test: as above; format: cell-based; details: Homo sapiens, IGROV-1, read-out: growth inhibition % (GI%)
Description: as §1, §2

LOX IMVI = test: as above; format: cell-based; details: Homo sapiens, read-out: growth inhibition % (GI%)
Description: as §1, §2

M14 = test: as above; format: cell-based; details: Homo sapiens, read-out: growth inhibition % (GI%)
Description: as §1, §2

MCF7 = test: as above; format: cell-based; details: Homo sapiens, read-out: growth inhibition % (GI%)
Description: as §1, §2

MDA-MB-231/ATCC = test: as above; format: cell-based; details: Homo sapiens, read-out: growth inhibition % (GI%)
Description: as §1, §2

MDA-MB-468 = test: as above; format: cell-based; details: Homo sapiens, read-out: growth inhibition % (GI%)
Description: as §1, §2

MOLT-4 = test: as above; format: cell-based; details: Homo sapiens, read-out: growth inhibition % (GI%)
Description: as §1, §2

NCI-H226 = test: as above; format: cell-based; details: Homo sapiens, read-out: growth inhibition % (GI%)
Description: as §1, §2

NCI-H23 = test: as above; format: cell-based; details: Homo sapiens, read-out: growth inhibition % (GI%)
Description: as §1, §2

NCI-H522 = test: as above; format: cell-based; details: Homo sapiens, read-out: growth inhibition % (GI%)
Description: as §1, §2

OVCAR-8 = test: as above; format: cell-based; details: Homo sapiens, read-out: growth inhibition % (GI%)
Description: as §1, §2

PC-3 = test: as above; format: cell-based; details: Homo sapiens, read-out: growth inhibition % (GI%)
Description: as §1, §2

RPMI-8226 = test: as above; format: cell-based; details: Homo sapiens, read-out: growth inhibition % (GI%)
Description: as §1, §2

RXF 393 = test: as above; format: cell-based; details: Homo sapiens, read-out: growth inhibition % (GI%)
Description: as §1, §2

SF-268 = test: as above; format: cell-based; details: Homo sapiens, read-out: growth inhibition % (GI%)
Description: as §1, §2

SF-539 = test: as above; format: cell-based; details: Homo sapiens, read-out: growth inhibition % (GI%)
Description: as §1, §2

SK-MEL-5 = test: as above; format: cell-based; details: Homo sapiens, read-out: growth inhibition % (GI%)
Description: as §1, §2

SN 12 C = test: as above; format: cell-based; details: Homo sapiens, SN12C, read-out: growth inhibition % (GI%)
Description: as §1, §2

SNB-19 = test: as above; format: cell-based; details: Homo sapiens, read-out: growth inhibition % (GI%)
Description: as §1, §2

SNB-75 = test: as above; format: cell-based; details: Homo sapiens, read-out: growth inhibition % (GI%)
Description: as §1, §2

SW-620 = test: as above; format: cell-based; details: Homo sapiens, read-out: growth inhibition % (GI%)
Description: as §1, §2

T-47D = test: as above; format: cell-based; details: Homo sapiens, T47D, read-out: growth inhibition % (GI%)
Description: as §1, §2

U251 = test: as above; format: cell-based; details: Homo sapiens, U-251, read-out: growth inhibition % (GI%)
Description: as §1, §2

UACC-62 = test: as above; format: cell-based; details: Homo sapiens, read-out: growth inhibition % (GI%)
Description: as §1, §2

UO-31 = test: as above; format: cell-based; details: Homo sapiens, read-out: growth inhibition % (GI%)
Description: as §1, §2

Cc1ccc(C(=O)c2ccc(CC(=O)NNC(=O)Nc3c(C)cccc3Cl)n2C)cc1 [Compound 8b, N-(2-Chloro-6-methylphenyl)-2–(2-(1-methyl-5–(4-methylbenzoyl)-1H-pyrrol-2-yl)acetyl)hydrazinecarboxamide]
240 to 242 °C: melting point
16.1%: inhibition at 10 µM (SNB-19)
27.9%: inhibition at 10 µM (SNB-75)
26.1%: inhibition at 10 µM (UO-31)
< 10%: inhibition at 10 µM (A498) | inhibition at 10 µM (A549/ATCC) | inhibition at 10 µM (ACHN) | inhibition at 10 µM (EKVX) | inhibition at 10 µM (HCT-15) | inhibition at 10 µM (HOP-62) | inhibition at 10 µM (HS 578 T) | inhibition at 10 µM (LOX IMVI) | inhibition at 10 µM (M14) | inhibition at 10 µM (MCF7) | inhibition at 10 µM (MDA-MB-231/ATCC) | inhibition at 10 µM (MDA-MB-468) | inhibition at 10 µM (MOLT-4) | inhibition at 10 µM (NCI-H226) | inhibition at 10 µM (NCI-H23) | inhibition at 10 µM (NCI-H522) | inhibition at 10 µM (OVCAR-8) | inhibition at 10 µM (PC-3) | inhibition at 10 µM (RPMI-8226) | inhibition at 10 µM (RXF 393) | inhibition at 10 µM (SF-268) | inhibition at 10 µM (SF-539) | inhibition at 10 µM (SK-MEL-5) | inhibition at 10 µM (SN 12 C) | inhibition at 10 µM (SW-620) | inhibition at 10 µM (T-47D) | inhibition at 10 µM (U251) | inhibition at 10 µM (UACC-62)
11.3%: inhibition at 10 µM (CAKI-1)
12.7%: inhibition at 10 µM (BT-5)
11.2%: inhibition at 10 µM (IGROV1)
